The values below come from patent US20110137235A1, “ULTRASONIC CANCER THERAPY ACCELERATOR” (TOTO Ltd., priority 2008, published 2011).

The structures appear in SMILES notation.

The conditions of the series: 20 mmol/liter acetic acid-sodium acetate buffer pH 3.6, 40° C., 25 hr.

Source text: The titanium oxide complex particles and the dihydroxyphenylpropionic acid obtained in Example 1 were mixed together in 1) a 20 mmol/liter acetic acid-sodium acetate buffer solution (pH=3.6), 2) a 20 mmol/liter MES buffer solution (manufactured by Dojindo; pH=6.0), and 3) a 20 mmol/liter HEPES buffer solution (manufactured by Dojindo; pH=8.1) so that the final concentration of the titanium oxide complex particles and the final concentration of the dihydroxyphenylpropionic acid in the resultant mixed solutions were 2% and 50 mmol/liter, respectively. The total volume of each of the mixed solution was adjusted to 0.8 ml.
The adjusted solutions were stirred at 40° C. for 25 hr. For each solution, an absorption spectrum was measured in an ultraviolet-visible range (200 to 600 nm) with an ultraviolet-visible spectrometer.

For `O=C(O)CCc1ccc(O)c(O)c1` [dihydroxyphenylpropionic acid], the “Change in absorption spectrum versus zero hr” value is listed as “little or no change was observed in the absorption spectrum”.
